Laboratory results from patent publication US11492385B2, “Long-acting co-agonists of the glucagon and GLP-1 receptors” (Merck Sharp & Dohme Corp., priority 2015, dated 2022).
Starred links: 1 amine or outer side, 2 acyl side, 3 side chain; linkers in the order of their positions; H or OH if unused. Non-standard residues stand in square brackets, D forms with d. Residues, ends and D or L forms follow the SMILES beside them. Groups on a side chain read outwards from the residue. *: point of attachment. Phe(4-CH2NH2) = NCc1ccc(C[C@H](N)C(=O)O)cc1; C18 diacid = O=C(O)CCCCCCCCCCCCCCCCC(=O)*; C16 diacid = O=C(O)CCCCCCCCCCCCCCC(=O)*; γGlu = O=C(O)[C@H](CCC(=O)[*:2])N[*:1]; Met(O2) = CS(=O)(=O)CC[C@H](N)C(=O)O; αMeD = C[C@](N)(CC(=O)O)C(=O)O; AEEA = NCCOCCOCC(=O)O; Aib = CC(C)(N)C(=O)O

Legend:
[1] = target: T1, human GCGR (Homo sapiens, UniProt P47871); test: cAMP activity assay, cells expressing human GCGR; format: cell-based; settings: for EC50: cAMP production, cells expressing human GCGR, assay buffer with or without 20% human serum (not stated which), read-out: GCGR EC50 human; for hGCGR/hGLP1R (hTone): ratio of human GCGR EC50 to human GLP1R EC50
T1 construct: expressed in transfected cells; kept under Blasticidin and Hygromycin selection
Outline: (§1)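 Peptides as 10-point titrations from DMSO tested on cells expressing human GLP1R or GCGR. cAMP measured by luminescent kit after overnight room-temperature incubation in the dark. EC50 from four-parameter logistic fit; native GLP-1 and glucagon as controls.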

[2] = target: T2, human GLP1R (Homo sapiens, UniProt P43220); test: cAMP activity assay, cells expressing human GLP1R; format: cell-based; settings: cAMP production, assay buffer with or without 20% human serum (not stated which)
T2 construct: expressed in transfected cells; kept under Blasticidin and Hygromycin selection
Outline: as §1

T1 sequence (P47871 26-477): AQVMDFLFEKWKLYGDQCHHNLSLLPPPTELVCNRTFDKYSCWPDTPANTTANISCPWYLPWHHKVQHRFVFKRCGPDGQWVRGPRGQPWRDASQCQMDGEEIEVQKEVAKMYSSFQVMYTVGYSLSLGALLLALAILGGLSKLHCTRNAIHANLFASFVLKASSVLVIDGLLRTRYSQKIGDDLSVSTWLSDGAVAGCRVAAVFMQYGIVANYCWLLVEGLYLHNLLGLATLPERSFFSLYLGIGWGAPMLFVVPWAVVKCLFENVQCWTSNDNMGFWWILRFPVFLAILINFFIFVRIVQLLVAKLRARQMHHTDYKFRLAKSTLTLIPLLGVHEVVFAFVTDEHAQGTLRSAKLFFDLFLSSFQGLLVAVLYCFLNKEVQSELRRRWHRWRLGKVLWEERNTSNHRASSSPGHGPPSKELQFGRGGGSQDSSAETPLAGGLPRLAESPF
T2 sequence (P43220 24-463): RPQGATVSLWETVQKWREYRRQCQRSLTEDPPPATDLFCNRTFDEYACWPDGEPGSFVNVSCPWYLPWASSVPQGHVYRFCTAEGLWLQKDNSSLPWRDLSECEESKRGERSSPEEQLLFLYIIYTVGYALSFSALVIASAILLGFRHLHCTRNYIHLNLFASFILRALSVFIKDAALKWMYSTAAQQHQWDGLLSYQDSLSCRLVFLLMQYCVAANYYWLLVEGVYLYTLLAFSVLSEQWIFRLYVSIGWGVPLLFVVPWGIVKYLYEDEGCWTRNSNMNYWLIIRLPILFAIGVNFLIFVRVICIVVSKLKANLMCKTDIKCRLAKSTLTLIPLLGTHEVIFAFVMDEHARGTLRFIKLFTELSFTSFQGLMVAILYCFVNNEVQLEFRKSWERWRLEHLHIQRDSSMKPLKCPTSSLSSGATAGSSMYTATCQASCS

| Compound | EC50 [1] [nM] | hGCGR/hGLP1R (hTone) [1] | EC50 [2] [nM] |
| --- | --- | --- | --- |
| CC(C)C[C@H](NC(=O)[C@H](Cc1ccc(O)cc1)NC(=O)[C@H](CCCCN)NC(=O)[C@H](CO)NC(=O)[C@H](Cc1ccc(O)cc1)NC(=O)[C@H](CC(=O)O)NC(=O)[C@H](CO)NC(=O)[C@@H](NC(=O)[C@H](Cc1ccccc1)NC(=O)[C@@H](NC(=O)CNC(=O)[C@H](CCC(N)=O)NC(=O)C(C)(C)NC(=O)[C@@H](N)Cc1c[nH]cn1)[C@@H](C)O)[C@@H](C)O)C(=O)N[C@@H](CC(=O)O)C(=O)N[C@@H](C)C(=O)N[C@@H](CCCNC(=N)N)C(=O)N[C@@H](C)C(=O)N[C@@H](C)C(=O)N[C@@H](CCCCNC(=O)COCCOCCNC(=O)COCCOCCNC(=O)CC[C@H](NC(=O)CCCCCCCCCCCCCCC(=O)O)C(=O)O)C(=O)N[C@@H](CC(=O)O)C(=O)N[C@@H](Cc1ccccc1)C(=O)N[C@H](C(=O)N[C@@H](CCC(N)=O)C(=O)N[C@@H](Cc1c[nH]c2ccccc12)C(=O)N[C@@H](CC(C)C)C(=O)N[C@@H](CCS(C)(=O)=O)C(=O)N[C@@H](CC(=O)O)C(=O)N[C@H](C(N)=O)[C@@H](C)O)C(C)C [compound 19] (H-H[Aib]QGTFTSDYSKYLDARAAK([AEEA-AEEA-γGlu-C16 diacid])DFVQWL[Met(O2)]DT-NH2) | 0.08 | 2.15 | 0.04 |
| CC(C)C[C@H](NC(=O)[C@H](Cc1ccc(O)cc1)NC(=O)[C@H](CCCCN)NC(=O)[C@H](CO)NC(=O)[C@H](Cc1ccc(O)cc1)NC(=O)[C@H](CC(=O)O)NC(=O)[C@H](CO)NC(=O)[C@@H](NC(=O)[C@H](Cc1ccccc1)NC(=O)[C@@H](NC(=O)CNC(=O)[C@H](CCC(N)=O)NC(=O)[C@@H](CO)NC(=O)[C@@H](N)Cc1c[nH]cn1)[C@@H](C)O)[C@@H](C)O)C(=O)N[C@@H](CC(=O)O)C(=O)N[C@@H](C)C(=O)N[C@@H](CCCNC(=N)N)C(=O)N[C@@H](C)C(=O)N[C@@H](C)C(=O)N[C@@H](CCC(N)=O)C(=O)N[C@@H](CCCCNC(=O)COCCOCCNC(=O)COCCOCCNC(=O)CC[C@H](NC(=O)CCCCCCCCCCCCCCC(=O)O)C(=O)O)C(=O)N[C@@H](Cc1ccccc1)C(=O)N[C@H](C(=O)N[C@@H](CCC(N)=O)C(=O)N[C@@H](Cc1c[nH]c2ccccc12)C(=O)N[C@@H](CC(C)C)C(=O)N[C@@H](CCS(C)(=O)=O)C(=O)N[C@@H](CC(=O)O)C(=O)N[C@H](C(N)=O)[C@@H](C)O)C(C)C [compound 15] (H-H[dS]QGTFTSDYSKYLDARAAQK([AEEA-AEEA-γGlu-C16 diacid])FVQWL[Met(O2)]DT-NH2) | 0.01 | 0.07 | 0.22 |
| CC(C)C[C@H](NC(=O)[C@H](Cc1ccc(O)cc1)NC(=O)[C@H](CCCCN)NC(=O)[C@H](CO)NC(=O)[C@H](Cc1ccc(CNC(=O)COCCOCCNC(=O)COCCOCCNC(=O)CC[C@H](NC(=O)CCCCCCCCCCCCCCC(=O)O)C(=O)O)cc1)NC(=O)[C@H](CC(=O)O)NC(=O)[C@H](CO)NC(=O)[C@@H](NC(=O)[C@H](Cc1ccccc1)NC(=O)[C@@H](NC(=O)CNC(=O)[C@H](CCC(N)=O)NC(=O)[C@@H](CO)NC(=O)[C@@H](N)Cc1c[nH]cn1)[C@@H](C)O)[C@@H](C)O)C(=O)N[C@@H](CC(=O)O)C(=O)N[C@@H](CCC(=O)O)C(=O)N[C@@H](CCCNC(=N)N)C(=O)N[C@@H](C)C(=O)N[C@@H](C)C(=O)N[C@@H](CCC(N)=O)C(=O)N[C@@H](CC(=O)O)C(=O)N[C@@H](Cc1ccccc1)C(=O)N[C@H](C(=O)N[C@@H](CCC(N)=O)C(=O)N[C@@H](Cc1c[nH]c2ccccc12)C(=O)N[C@@H](CC(C)C)C(=O)N[C@@H](CC(C)C)C(=O)N[C@@H](CCCCN)C(=O)N[C@H](C(N)=O)[C@@H](C)O)C(C)C [compound 10] (H-H[dS]QGTFTSD[Phe(4-CH2NH2)]([AEEA-AEEA-γGlu-C16 diacid])SKYLDERAAQDFVQWLLKT-NH2; N-terminus assumed) | 0.12 | 0.26 | 0.46 |
| CC(C)C[C@H](NC(=O)[C@H](CC(C)C)NC(=O)[C@H](CCCCN)NC(=O)[C@H](CO)NC(=O)[C@H](Cc1ccc(O)cc1)NC(=O)[C@H](CC(=O)O)NC(=O)[C@H](CO)NC(=O)[C@@H](NC(=O)[C@H](Cc1ccccc1)NC(=O)[C@@H](NC(=O)CNC(=O)[C@H](CCC(N)=O)NC(=O)C(C)(C)NC(=O)[C@@H](N)Cc1c[nH]cn1)[C@@H](C)O)[C@@H](C)O)C(=O)N[C@@H](CC(=O)O)C(=O)N[C@@H](C)C(=O)N[C@@H](CCCNC(=N)N)C(=O)N[C@@H](C)C(=O)N[C@@H](C)C(=O)N[C@@H](CCCCNC(=O)COCCOCCNC(=O)COCCOCCNC(=O)CC[C@H](NC(=O)CCCCCCCCCCCCCCCCC(=O)O)C(=O)O)C(=O)N[C@@H](CC(=O)O)C(=O)N[C@@H](Cc1ccccc1)C(=O)N[C@H](C(=O)N[C@@H](CCC(N)=O)C(=O)N[C@@H](Cc1c[nH]c2ccccc12)C(=O)N[C@@H](CC(C)C)C(=O)N[C@@H](CCS(C)(=O)=O)C(=O)N[C@@H](CC(=O)O)C(=O)N[C@H](C(N)=O)[C@@H](C)O)C(C)C [compound 76] (H-H[Aib]QGTFTSDYSKLLDARAAK([AEEA-AEEA-γGlu-C18 diacid])DFVQWL[Met(O2)]DT-NH2; N-terminus assumed) | 0.74 | 1.2 | 0.61 |
| CC(C)C[C@H](NC(=O)[C@H](Cc1ccc(O)cc1)NC(=O)[C@H](CCCCN)NC(=O)[C@H](CO)NC(=O)[C@H](Cc1ccc(O)cc1)NC(=O)[C@H](CC(=O)O)NC(=O)[C@H](CO)NC(=O)[C@@H](NC(=O)[C@H](Cc1ccccc1)NC(=O)[C@@H](NC(=O)CNC(=O)[C@H](CCC(N)=O)NC(=O)C(C)(C)NC(=O)[C@@H](N)Cc1c[nH]cn1)[C@@H](C)O)[C@@H](C)O)C(=O)N[C@@H](CC(=O)O)C(=O)N[C@@H](C)C(=O)N[C@@H](CCCNC(=N)N)C(=O)N[C@@H](C)C(=O)N[C@@H](C)C(=O)N[C@@H](CCCCNC(=O)COCCOCCNC(=O)COCCOCCNC(=O)CC[C@H](NC(=O)CCCCCCCCCCCCCCCCC(=O)O)C(=O)O)C(=O)N[C@@H](CC(=O)O)C(=O)N[C@@H](Cc1ccccc1)C(=O)N[C@H](C(=O)N[C@@H](CCC(N)=O)C(=O)N[C@@H](Cc1c[nH]c2ccccc12)C(=O)N[C@@H](CC(C)C)C(=O)N[C@@H](CCS(C)(=O)=O)C(=O)N[C@@](C)(CC(=O)O)C(=O)N[C@H](C(N)=O)[C@@H](C)O)C(C)C [compound 74] (H-H[Aib]QGTFTSDYSKYLDARAAK([AEEA-AEEA-γGlu-C18 diacid])DFVQWL[Met(O2)][αMeD]T-NH2) | 0.86 | 0.6 | 1.39 |
| CC(C)C[C@H](NC(=O)[C@H](CC(C)C)NC(=O)[C@H](Cc1c[nH]c2ccccc12)NC(=O)[C@H](CCC(N)=O)NC(=O)[C@@H](NC(=O)[C@H](Cc1ccccc1)NC(=O)[C@H](CCCCNC(=O)COCCOCCNC(=O)COCCOCCNC(=O)CC[C@H](NC(=O)CCCCCCCCCCCCCCC(=O)O)C(=O)O)NC(=O)[C@H](CCC(N)=O)NC(=O)[C@H](C)NC(=O)[C@H](C)NC(=O)[C@H](CCCNC(=N)N)NC(=O)C(C)(C)NC(=O)[C@H](CC(=O)O)NC(=O)[C@H](CC(C)C)NC(=O)[C@H](Cc1ccc(O)cc1)NC(=O)[C@H](CCCCN)NC(=O)[C@H](CO)NC(=O)[C@H](Cc1ccc(O)cc1)NC(=O)[C@H](CC(=O)O)NC(=O)[C@H](CO)NC(=O)[C@@H](NC(=O)[C@H](Cc1ccccc1)NC(=O)[C@@H](NC(=O)CNC(=O)[C@H](CCC(N)=O)NC(=O)[C@@H](CO)NC(=O)[C@@H](N)Cc1c[nH]cn1)[C@@H](C)O)[C@@H](C)O)C(C)C)C(=O)N[C@@H](C)C(=O)N[C@H](C(=O)N[C@@H](CCCCNC(=O)CC[C@H](N)C(=O)O)C(N)=O)[C@@H](C)O [compound 1] (H-H[dS]QGTFTSDYSKYLD[Aib]RAAQK([AEEA-AEEA-γGlu-C16 diacid])FVQWLLATK(γGlu)-NH2) | 0.16 | 0.09 | 1.89 |
